# Experimental data as given in patent US4060526A, “1-Heterocyclic alkyl-1,2,3,4-tetrahydroquinazolinones and analgesic intermediates thereof” (priority 1976, dated 1977).
# Where two headings read alike, the source gives them in different places.
# How the values were obtained:
# [1] = tested on: phenylbenzoquinone writhing; experiment: phenylbenzoquinone writhing test, rat; format: in vivo
# Text: (§1) […]. […] Ten animals are used at each dose level.
# [2] = phenylbenzoquinone writhing test, rat; format: in vivo; settings: rat, in vivo
# Text: as §1
# [3] = tested on: pinna reflex, corneal reflex; experiment: pinna / corneal reflex test (Witkin et al.), tranquilizer activity; format: in vivo, mouse; settings: for ratio of ED50 corneal/ED50 pinna: mouse, exceeding unity = tranquilizer type action; for tranquilizer classification from corneal/pinna ratio: words
# Text: (§2) A tranquil sedation has been observed in mice, rats, cats and monkeys following administration of these compounds in doses exceeding those that are required for analgesia. In addition further indirect evidence for tranquilizer activity has been obtained by application of a method described by Witkin et al., J. Pharmacol, and Exp. Ther. 126:330 (1959)
# This test is based upon observations that the pinna reflex of the mouse is blocked at relatively low doses of major tranquilizer drugs whereas very high doses are needed to block the corneal reflex. A ratio of ED50 corneal/ED50 pinna exceeding unity is taken as evidence of tranquilizer type action. […].
# [4] = tested on: metrazol induced convulsions; experiment: anticonvulsant activity, pentylenetetrazol (Metrazol) convulsions; format: in vivo; settings: mice, words
# acute toxicity, rat = settings: in vivo, sc; Rat s.c.; preliminary result
# Experimental: (§3) Compounds were administered in 2% clearjel as a suspension except in
# (§4) Toxicities have only been run with male animals to date.
# [5] = analgesic activity and general pharmacology, conventional testing methods; format: in vivo; settings: words
# Text: Ten animals are used for each dose level.
# Ten animals are used at each dose level.
# in vivo [6] = settings: mouse
# morphine analgesia = experiment: antagonism of morphine analgesia (Harris & Pearson, modified D'Amour & Smith); format: in vivo; settings: rats; words
# Experimental: (§5) The compounds of this invention were tested for their ability to antagonize narcotic analgesics by two different tests. […] Another test used for narcotic antagonist activity was published by Harris & Pearson. This test is modification of the D'Amour & Smith method.
# (§6) In the original method the time required for rats to flick their tails following application of a heat stimulus is taken as a measure of analgesic potency.
# in vivo [7] = experiment: in vivo; design: species or system mice, rats, cats and monkeys
# Text: as §2
# [8] = tested on: oxymorphone induced mydriasis; experiment: antagonism of oxymorphone induced mydriasis; format: in vivo, mice; settings: words
# Experimental: as §5
# acute toxicity, cat = settings: in vivo
# Experimental: as §3, §4
# [9] = hypothermic effect, rectal temperature; format: in vivo; settings: mice; words
# Experimental: Rectal temperatures were recorded periodically in mice following administration of 740-222 by oral route.
# in vivo [10] = experiment: in vivo
# [11] = tested on: isolated guinea pig ileum (Histamine); experiment: isolated guinea pig ileum screen, block of histamine (antihistaminic); settings: for Amount to produce a 50% block of Histamine: isolated guinea pig ileum, 37° C.; for antihistaminic activity compared with diphenhydramine: words
# Text: Contractions were elicited by histamine phosphate. The concentration of compound required to block these contractions when added to the tissue bath prior to introduction of histamine is taken as evidence of antihistaminic action.
# [12] = tested on: isolated guinea pig ileum (Acetylcholine); experiment: isolated guinea pig ileum screen, block of acetylcholine
# solubility = format: physicochemical; settings: words
# intestinal motility = experiment: gastrointestinal motility suppression (Brittain & Collier, modified), charcoal; format: in vivo; settings: mice, words
# heat stimulus [13] = experiment: mouse hot plate test (Eddy and Leimbach, modified); settings: for ED50: Mus musculus, read-out: Hot Plate ED50
# [14] = mouse hot plate test (Eddy and Leimbach, modified); settings: mouse, in vivo, LD50 /ED50 H.P.
# [15] = tested on: phenylbenzoquinone writhing; experiment: phenylbenzoquinone writhing test, mouse; format: in vivo
# Experimental: (§7) In addition to the hot plate method, the writhing test described by Sigmund et al., Soc. Exp. Biol. and Med. 95:729 (1957) has been applied in both rats and mice as further indication of analgesics. […] The stimulus of intraperitoneal injection of phenylbenzoquinone results in a writhing syndrome characterized by periodic twisting and stretching of the body with extension of the hind legs. […] The dose of compound protecting 50% of the animals is determined and expressed as the ED50. Ten animals are used at each dose level.
# [16] = phenylbenzoquinone writhing test, mouse; format: in vivo; settings: mouse, in vivo
# Experimental: as §7
# heat stimulus [17] = experiment: D'Amour Smith Rat Tail Flick; format: in vivo; settings: for ED50: Rattus norvegicus
# Text: as §6
# in vivo [18] = settings: ip
# NARCOTIC ANTAGONISM = experiment: narcotic antagonism (Table IV); format: in vivo; settings: I.P.
# Experimental: as §5, §6
# MOUSE TAIL STIMULATION = experiment: mouse tail stimulation analgesia; settings: S.C.
# [19] = ip, Cat i.p., preliminary result (740-222)
# [20] = ip, Mouse i.p., read-out: LD50 (48 hr)
# [21] = po, Mouse p.o., read-out: LD50 (48 hr)
# [22] = sc, Mouse s.c., read-out: LD50 (48 hr)
# [23] = po, Mouse p.o., read-out: LD50 /ED50 Writhing
structure (smiles),measurement,setting,value
"O=C1NC(c2ccccc2)N(CCN2CCN(c3ccccc3)CC2)c2ccccc21 (stereo not shown) [Example II, 1-[2-(1-Phenyl-4-piperazinyl)ethyl]-2-phenyl-1,2,3,4-tetrahydro-4-quinazolinone]",ED50,"[1]; Rattus norvegicus, rats, oral, read-out: dose at which writhing syndrome is 50% blocked",10 mg/kg
same,ED50,"[1]; po, Rat p.o., read-out: Writhing ED50",14 mg/kg
same,selectivity ratio,[2]; po,7.1
same,selectivity ratio,"[2]; po, Rat p.o., read-out: LD50 /ED50 Writhing",71
same,ratio of ED50 corneal/ED50 pinna,[3],greater than 10
same,tranquilizer classification from corneal/pinna ratio,[3],classified as possessing tranquilizer activity
same,antagonism of metrazol induced convulsions,[4]; oral,able to antagonize these metrazol induced convulsions in mice
same,LD50 at 48 h,"acute toxicity, rat",> 1000 mg/kg
same,oral versus parenteral analgesic activity,[5],more active by the oral than the parenteral route
same,selectivity ratio,in vivo [6]; ip,3.4
same,selectivity ratio,in vivo [6]; po,5
same,antagonism of morphine analgesia,morphine analgesia,not effective by the subcutaneous route
same,selectivity ratio,in vivo [7],~10
same,antagonism of oxymorphone induced mydriasis,[8],slight antagonism of oxymorphone induced mydriasis in mice by the intraperiteneal route only
same,LD50 at 48 h,"acute toxicity, cat; [19]",> 1000 mg/kg
same,LD50 at 48 h,"acute toxicity, cat; po, Cat p.o., preliminary result",> 1000 mg/kg
same,hypothermic effect,[9],effectively reduced body temperature in normal mice
same,LD50 at 48 h,in vivo [10]; [20],> 2500 mg/kg
same,LD50,"in vivo [10]; mouse, mice, all routes tested, read-out: acute toxicity",> 1000 mg/kg
same,selectivity ratio,"in vivo [10]; mouse, oral route, read-out: therapeutic index (lethal dose to effective dose)",> 300
same,LD50 at 48 h,in vivo [10]; [21],> 10000 mg/kg
same,LD50 at 48 h,in vivo [10]; [22],> 1000 mg/kg
same,Amount to produce a 50% block of Histamine,[11],0.5 micrograms
same,antihistaminic activity compared with diphenhydramine,[11],about the same activity as the standard antihistaminic diphenhydramine
same,Amount to produce a 50% block of Acetylcholine,[12],1000 micrograms
same,solubility,solubility,low solubility
same,suppression of intestinal motility,intestinal motility,effective in suppressing intestinal motility in mice
same,suppression of intestinal motility,intestinal motility; listed as 740-222,reduces gut motility
same,ED50,heat stimulus [13]; ip,52 mg/kg
same,ED50,heat stimulus [13]; po,20 mg/kg
same,ED50,heat stimulus [13]; sc,> 562 mg/kg
same,"analgesic activity compared with codeine, hot plate","heat stimulus [13]; mice, oral, words",of the same order as codeine
same,"analgesic activity compared with morphine, hot plate","heat stimulus [13]; mice, oral, words",slightly less than morphine
same,selectivity ratio,"[14]; ip, Mouse i.p.",> 17
same,selectivity ratio,"[14]; po, Mouse p.o.",> 50
same,"activity relative to morphine, writhing test",[15]; mice,approximately one third
same,ED50,"[15]; po, Mouse p.o.",11 mg/kg
same,selectivity ratio,[16]; po,9
same,selectivity ratio,[16]; [23],> 91
same,ED50,"heat stimulus [17]; po, read-out: D'Amour Smith Rat Tail Flick ED50",> 100 mg/kg
"NC(=O)c1ccccc1NCCN1CCN(c2ccccc2)CC1 [Example I, 2-[2-(4-[1-Phenyl]piperazinyl)ethylamino]-benzamide]",ED50,"[1]; sc, Rat Sub. cut, read-out: Writhing ED50",2.5 mg/kg
same,selectivity ratio,[2],2
same,selectivity ratio,"[2]; Rat Sub. cut, read-out: LD50 /ED50 Writhing",400
same,ratio of ED50 corneal/ED50 pinna,[3],approximately 0.5
same,tranquilizer classification from corneal/pinna ratio,[3],within the range of ratios expected with sedatives (0.3 to 0.7)
same,antagonism of metrazol induced convulsions,[4]; subcutaneous,not effective by the subcutaneous route
same,"analgesic activity compared with morphine, hot plate and writhing tests",[5],approximately equivalent to or slightly more active than morphine
same,oral versus parenteral analgesic activity,[5],more active by the parenteral routes than by the oral route
same,selectivity ratio,in vivo [6]; ip,1.2
same,selectivity ratio,in vivo [6]; po,1.9
same,selectivity ratio,in vivo [6]; sc,2.4
same,antagonism of morphine analgesia,morphine analgesia,at lower dose levels antagonism of morphine analgesia was observed in rats
same,antagonism of oxymorphone induced mydriasis,[8],effective in antagonizing oxymorphone induced mydriasis
same,LD50,in vivo [18],800 mg/kg
same,NOAEL,in vivo [18],2 mg/kg
same,hypothermic effect,[9],also effective in this respect
same,selectivity ratio,in vivo [10]; mouse,> 300
same,LD50,"in vivo [10]; mouse, read-out: acute toxicity (LD50)",800 to 1000 mg/kg
same,Amount to produce a 50% block of Histamine,[11],0.8 micrograms
same,antihistaminic activity compared with diphenhydramine,[11],about half as active as the standard
same,Amount to produce a 50% block of Acetylcholine,[12],126 micrograms
same,suppression of intestinal motility,intestinal motility,less important
same,NARCOTIC ANTAGONISM,NARCOTIC ANTAGONISM,Positive
same,ED50,heat stimulus [13]; ip,1.5 mg/kg
same,ED50,heat stimulus [13]; po,3 mg/kg
same,ED50,heat stimulus [13]; sc,4.1 mg/kg
same,selectivity ratio,"[14]; ip, Mouse i.p.",670
same,selectivity ratio,"[14]; po, Mouse p.o.",> 330
same,selectivity ratio,"[14]; sc, Mouse s.c.",> 240
same,ED50,"[15]; po, Mouse p.o.",2.9 mg/kg
same,ED50,"[15]; sc, Mouse s.c.",1.6 mg/kg
same,selectivity ratio,[16]; po,1.9
same,selectivity ratio,[16]; [23],> 340
same,selectivity ratio,[16]; sc,6.3
same,selectivity ratio,"[16]; sc, Mouse s.c., read-out: LD50 /ED50 Writhing",> 620
same,ED50,"heat stimulus [17]; sc, Sub. cut., read-out: Rat Tail Flick ED50",> 18 mg/kg
"NC(=O)c1ccccc1NCCN1CCN(c2ccccc2)CC1 [Example 730-372A, 2-[2-(4-[1-Phenyl]piperazinyl)ethylamino]-benzamide]",LD50 at 48 h,"acute toxicity, rat",> 1000 mg/kg
same,LD50 at 48 h,"acute toxicity, cat; [19]",> 1000 mg/kg
same,LD50 at 48 h,in vivo [10]; [20],> 1000 mg/kg
same,LD50 at 48 h,"in vivo [10]; iv, Mouse i.v., solution (5mg/ml) in distilled water, read-out: LD50 (48 hr)",50 mg/kg
same,LD50 at 48 h,in vivo [10]; [21],> 1000 mg/kg
same,LD50 at 48 h,in vivo [10]; [22],> 1000 mg/kg
"COc1ccc2c3c1O[C@H]1[C@@H](O)C=C[C@H]4[C@@H](C2)N(C)CC[C@@]341 [Codeine, reference compound]",selectivity ratio,"in vivo [6]; ip, HNSD./ED50 H.P., Mouse i.p., HNSD = highest dose without gross symptoms",2.6
same,selectivity ratio,"in vivo [6]; ip, LD50 /ED50 H.P., Mouse i.p.",8.7
same,selectivity ratio,"in vivo [6]; po, HNSD./ED50 H.P., Mouse p.o., HNSD = highest dose without gross symptoms",5
same,selectivity ratio,"in vivo [6]; po, LD50 /ED50 H.P., Mouse p.o.",27
same,effect of narcotic agents on pupil size,[8]; mice,no change or an increase in the pupil size
same,LD50 at 48 h,"in vivo [10]; mouse, ip",104 mg/kg
same,LD50 at 48 h,"in vivo [10]; mouse, po",540 mg/kg
same,ED50,heat stimulus [13]; ip,12 mg/kg
same,ED50,heat stimulus [13]; po,20 mg/kg
same,ED50,"[15]; po, Mouse p.o.",17 mg/kg
same,selectivity ratio,"[16]; po, Mouse p.o., HNSD = highest dose without gross symptoms, read-out: HNSD./ED50 Writhing",5.9
same,selectivity ratio,[16]; [23],32
"CN1CC[C@]23c4c5ccc(O)c4O[C@H]2[C@@H](O)C=C[C@H]3[C@H]1C5 [Morphine, reference compound]",MOUSE TAIL STIMULATION ED50,MOUSE TAIL STIMULATION,1.5 mg/kg
same,NARCOTIC ANTAGONISM,NARCOTIC ANTAGONISM,Negative
same,Rat Tail Flick ED50,heat stimulus [17]; Sub. cut.,15 mg/kg
